The species named for data set [1] is Danio rerio. The data set can be described thus: Anticonvulsant activity in 7-days post fertilized zebra fish larvae assessed as reduction in pentylenetetrazol-induced locomotor activity by measuring total distance traveled by larvae at 0.25 to 2 uM pretreated for 3 hrs followed by pentylenetetrazol addition measured at 5 mins interval 30 mins. Type of data set: functional, organism-based.

Data set [2] is filed under the species Danio rerio. Description: Toxicity in 7-days post fertilized zebra fish larvae after 1.5 to 24 hrs by microscopic analysis. Format: organism-based. Conditions: zebrafish, in vivo.
The species entered for data set [3] is Danio rerio. The data set can be described thus: Anticonvulsant activity in 7-days post fertilized zebra fish larvae assessed as reduction in pentylenetetrazol-induced locomotor activity by measuring total distance traveled by larvae pretreated for 3 hrs followed by pentylenetetrazol addition measured at 5 mins interval 30 mins. Type of data set: functional, organism-based.

The species named for data set [4] is Danio rerio. Description: Anticonvulsant activity in 7-days post fertilized zebra fish larvae assessed as reduction in pentylenetetrazol-induced locomotor activity by measuring total distance traveled by larvae at 1.25 to 10 uM pretreated for 3 hrs followed by pentylenetetrazol addition measured at 5 mins interval 30 mins. Type of data set: functional, organism-based.

For data set [5], the species on record is Danio rerio. Description: Anticonvulsant activity in 7-days post fertilized zebra fish larvae assessed as reduction in pentylenetetrazol-induced locomotor activity by measuring total distance traveled by larvae at 1.5 to 6 uM pretreated for 3 hrs followed by pentylenetetrazol addition measured at 5 mins interval 30 mins. Type of data set: functional, organism-based.

Active and inactive are the calls of the source. The calls are words filed in the database; no cut-off is given here.

Consider `C=C[C@]1(C)C=C2CC[C@@H]3[C@](C)(CCC[C@@]3(C)C(=O)O)[C@H]2CC1` [SANDARACOPIMARIC ACID], for which, in the data set filed under Danio rerio [1], the outcome was Active. Further, the MTD in the data set filed under Danio rerio [2] stood at 2 µM.

In the data set filed under Danio rerio [2], `CN1C(=O)CN=C(c2ccccc2)c2cc(Cl)ccc21` [DIAZEPAM] registered an MTD of 20 µM. Also, the Activity result in the data set listed under Danio rerio [3] is “Dose-dependent effect”.

Molecule `C=CCc1ccc(O)c(-c2cc(CC=C)ccc2O)c1` [MAGNOLOL] showed an MTD in the data set listed under Danio rerio [2] of 4 µM. In the data set filed under Danio rerio [3], the Activity entry was “Dose-dependent effect”.

In the data set filed under Danio rerio [2], `C=C(C)[C@H](CC=C(C)C)Cc1c(O)cc(O)c2c1O[C@H](c1ccc(O)cc1O)CC2=O` [SOPHORAFLAVANONE G] displayed an MTD of 10 µM. For the same molecule, the result in the data set listed under Danio rerio [4] was Active.

In turn, `CC1=C2[C@H](/C=C(\C)C(=O)O)CC[C@@H](C)[C@H]2CC1` [VALERENIC ACID] showed an MTD in the data set listed under Danio rerio [2] of 10 µM. In the data set listed under Danio rerio [3], the Activity result was “Dose-dependent effect”.

Turning to `CC(C)=CC[C@]12Oc3cc(O)c([C@H]4C=C(C)C[C@H](c5ccc(O)cc5O)[C@H]4C(=O)c4ccc(O)cc4O)c(O)c3C(=O)[C@@]1(O)Oc1cc(O)ccc12` [SANGGENON C], the outcome in the data set filed under Danio rerio [1] was inactive. The molecule also displayed an MTD in the data set filed under Danio rerio [2] of 2 µM.

`O=C(/C=C/C=C/c1ccc2c(c1)OCO2)N1CCCCC1` [PIPERINE]: the MTD in the data set listed under Danio rerio [2] worked out at 12 µM. Also, the Activity result in the data set listed under Danio rerio [3] was “Dose-dependent effect”.

As to `CC(C)c1ccc2c(c1)CC[C@H]1[C@](C)(C(=O)O)CCC[C@]21C` [DEHYDROABIETIC ACID], the outcome in the data set filed under Danio rerio [5] was Active. In the data set filed under Danio rerio [2], this molecule returned an MTD of 6 µM.

The values are drawn from ChEMBL document CHEMBL4118049, “HPLC-Based Activity Profiling for GABAA Receptor Modulators in Extracts: Validation of an Approach Utilizing a Larval Zebrafish Locomotor Assay” (J Nat Prod, 2017).
